“And” between values parts separate entries of the source, which are not always exact repeats. Equal entries are not always repeated.
Columns and labels:
Type in all cases: in vivo
[1] = system: RenTG/L-NAME-supplemented female rats; experiment: RenTG rat model: survival rate assessment in female rats (B-1.3); conditions: 3 mg/kg BID, placebo 64.3%
Procedure: Male and female rennin-transgenic rats [TG(mRRen2)27] (RenTG rats) at the age of 8 weeks were used. Rats were randomized in groups with 12-24 rats/group. All groups were then chronically supplemented with L-NAME administrated via drinking water (30-50 mg/l). The L-NAME was dissolved in tap water and stored by room temperature. All groups were treated via oral gavage with either placebo/vehicle consisting of 10% transcutol, 20% cremophor and 70% tap water or different doses of the respective verum. The verum was dissolved in the vehicle and prepared freshly before administration. Study duration with concomitant L-NAME administration and treatment was up to 12 weeks. The baseline blood pressure was measured via tail-cuff method before the start of the treatment and after different time points during the study. Mortality and body weight were assessed on a daily basis. Urine samples were collected via the use of metabolic cages and urine was collected over a period of six hours to quantify proteinuria as correlate of kidney function and different urinary biomarkers for kidney and organ damage. At the end of the study all animals were kept in depth narcotic and bled via aortic puncture and sacrificed by permanent inhaled isoflurane, blood was taken in order to assess plasma parameters, and heart and kidney were weighed and harvested for histopathological evaluation. […]

[2] = system: RenTG/L-NAME-supplemented female rats; experiment: RenTG rat model: kidney function by proteinuria (uPCR) in female rats (B-1.4); conditions: 3 mg/kg BID; for uPCR % (normalized to placebo): placebo set as 100%
Procedure: (§1) Male and female rennin-transgenic rats [TG(mRRen2)27] (RenTG rats) at the age of 8 weeks were used. Rats were randomized in groups with 12-24 rats/group. All groups were then chronically supplemented with L-NAME administrated via drinking water (30-50 mg/l). The L-NAME was dissolved in tap water and stored by room temperature. All groups were treated via oral gavage with either placebo/vehicle consisting of 10% transcutol, 20% cremophor and 70% tap water or different doses of the respective verum. The verum was dissolved in the vehicle and prepared freshly before administration. Study duration with concomitant L-NAME administration and treatment was up to 12 weeks. The baseline blood pressure was measured via tail-cuff method before the start of the treatment and after different time points during the study. Mortality and body weight were assessed on a daily basis. Urine samples were collected via the use of metabolic cages and urine was collected over a period of six hours to quantify proteinuria as correlate of kidney function and different urinary biomarkers for kidney and organ damage. At the end of the study all animals were kept in depth narcotic and bled via aortic puncture and sacrificed by permanent inhaled isoflurane, blood was taken in order to assess plasma parameters, and heart and kidney were weighed and harvested for histopathological evaluation.
Urinary protein to creatinine ratio in the RenTG/L-NAME-supplemented female rats treated with either placebo (set as 100%) or 3 mg/kg example 1 BID or example 3 BID respectively. Data are mean±SEM.

[3] = system: RenTG/L-NAME-supplemented male, female and female OVX rats; experiment: RenTG rat model: survival rate in male, female and female ovariectomized (OVX) rats, head-to-head, OD dosing (B-1.5); conditions: for % survival: 3 mg/kg OD
Procedure: as §1
In male rat 93% of rats survived whereas in female rats all the rats survived in the sGC activator treatment arm (100%). There was no difference in survival rates in female OVX rats compared to non-OVX rats.

[4] = system: RenTG/L-NAME-supplemented male, female and female OVX rats; experiment: RenTG rat model: proteinuria (uPCR) in male, female and female OVX rats, OD dosing (B-1.6); conditions: for Urinary protein to creatinine ratio: 3 mg/kg OD, placebo 100; for reduction of proteinuria: OD
Procedure: as §1
The most striking differences between male and female were seen on proteinuria. […] In female rats these effects were much more pronounced, and proteinuria was reduced by 88% and by 99% in female rats without OVX and with OVX, respectively.

[5] = system: RenTG/L-NAME-supplemented male rats; experiment: RenTG rat model: survival rate assessment in male rats (B-1.1); conditions: for mortality: placebo 58%
Procedure: as §1
The survival rate in % of the RenTG/L-NAME-supplemented male rats treated with either placebo, or 1, 3 and 10 mg/kg runcaciguat (example 1) BID was investigated (see table 1).

[6] = system: RenTG/L-NAME-supplemented male rats; experiment: RenTG rat model: kidney function by proteinuria (uPCR) in male rats (B-1.2); conditions: for uPCR % (normalized to placebo): placebo set as 100%
Procedure: as §1
Urinary protein to creatinine ratio in the RenTG/L-NAME-supplemented male rats treated with either placebo (set as 100%) or with 1, 3 and 10 mg/kg example 1 (runcaciguat) BID was investigated (see table is 2).

CC(C)CN1CCN(c2ccc(-c3ccc(Cl)cc3N3CCC[C@@H](n4ncc(C(=O)O)c4C(F)F)C3)cc2)CC1 [Example 3, 1-{3(R)-1-[4-Chloro-4′-(4-isobutylpiperazin-1-yl)[biphenyl]-2-yl]piperidin-3-yl}-5-(difluoromethyl)-1H-pyrazole-4-carboxylic acid]
% survival ([1]; 3 mg/kg): 92,3%
reduction of proteinuria [2]: 84%
uPCR % (normalized to placebo) [2]: 16.4%
% survival ([3]; female OVX rats, placebo 40%): 100%
% survival ([3]; female rats, placebo 47%): 100%
% survival ([3]; male rats, placebo 60%): 93%
survival rate in male rats lower than in female rats ([3]; once daily dosing (OD)): 7%
survival rates in female OVX rats compared to non-OVX rats ([3]; once daily dosing (OD)): no difference
Urinary protein to creatinine ratio ([4]; female OVX rats): 1
reduction of proteinuria ([4]; female rats with OVX): 99%
reduction of proteinuria ([4]; female rats without OVX): 88%
Urinary protein to creatinine ratio ([4]; female rats): 12
Urinary protein to creatinine ratio ([4]; male rats): 43
reduction of proteinuria ([4]; male rats): 57%

C[C@H]([C@H](C(=O)Nc1cc([C@@H](CC(=O)O)C2CC2)ccc1Cl)c1ccc(Cl)cc1)C(F)(F)F [Example 1, (3S)-3-(4-chloro-3-{[(2S,3R)-2-(4-chlorophenyl)-4,4,4-trifluoro-3-methylbutanoyl]amino}phenyl)-3-cyclopropylpropanoic acid]
lower survival of male compared to female rats ([5]; 3 mg/kg BID, male rats at the point of 64% control survival vs female rats): 30%
% survival ([5]; male rats, 1 mg/kg BID p.o.): 44%
mortality ([5]; male rats, 1 mg/kg BID p.o.): 56%
survival rate at the point when 64% of the male control animals were still alive ([5]; male rats, 3 mg/kg BID): 70%
statistical evaluation of mortality reduction ([5]; male rats, 3 mg/kg BID p.o.): strong numerical trend
% survival ([5]; male rats, 3 mg/kg BID p.o., 3 mg/kg): 60% and 61%
mortality ([5]; male rats, 3 mg/kg BID p.o.): 39%
% survival ([5]; male rats, 10 mg/kg BID p.o.): 72%
statistical evaluation of mortality reduction ([5]; male rats, 10 mg/kg BID p.o.): reached statistical significance
mortality ([5]; male rats, 10 mg/kg BID p.o.): 28%
effect on survival rates ([5]; male rats, 1, 3 and 10 mg/kg BID p.o.): dose-dependently increased the survival rates
reduction of proteinuria ([6]; 1 mg/kg BID): 15%
uPCR % (normalized to placebo) ([6]; 1 mg/kg BID): 85.4%
reduction of proteinuria ([6]; 3 mg/kg BID): 29%
statistical evaluation of proteinuria reduction ([6]; 3 mg/kg BID): statistically significant
uPCR % (normalized to placebo) ([6]; 3 mg/kg BID): 71.1%
reduction of proteinuria ([6]; 10 mg/kg BID): 39%
statistical evaluation of proteinuria reduction ([6]; 10 mg/kg BID): statistically significant
uPCR % (normalized to placebo) ([6]; 10 mg/kg BID): 60.6%
% survival [1]: 100%
reduction of proteinuria [2]: 55%
uPCR % (normalized to placebo) [2]: 44.5%

Reference: patent publication US20260248781A1, “SOLUBLE GUANYLATE CYCLASE ACTIVATORS FOR USE IN THE TREATMENT OF HEART FAILURE WITH PRESERVED EJECTION FRACTION IN WOMEN” (BAYER AKTIENGESELLSCHAFT, priority 2022, published 2026)
